The text below walks through data of patent US20260308157A1, “Pyrrolopyrazine Compounds, Preparation Thereof and Therapeutic Uses Thereof” (Sanofi, priority 2023, published 2026).

Each structure is given as a SMILES string.

The target in one assay is T1, Cellular ERK5 Activity (Homo sapiens, UniProt Q13164).
T1 construct: MEF2-response-element luciferase reporter (pGreenFire1)
Kind of assay: Inhibition of Cellular ERK5 Activity (cell-based assay, MEF2 luciferase reporter in SN12C cells). The conditions noted are these: renal cancer cell line SN12C, doxycycline-induced MEK5DD, 0.3-10000 nM, mean where repeated. As to the method: (§1) Two assays were performed to assess the ERK5 inhibitory activity of compounds of the Examples, a cell-based assay and a cell-free biochemical assay. Where repeat measurements were taken, the value reported is a mean average.
Inhibition of Cellular ERK5 Activity
The renal cancer cell line SN12C was transduced by a lentivirus pGreenFire1 MEF2 EF1 Neo (ref TR030VA-N) from SBI using standard infection protocol. pGreenFire1 MEF2 EF1 Neo allows the expression of luciferase gene under the control of minimal promoter with MEF2 transcriptional response elements. Cells harboring the reporter construct were selected by geneticin treatment. The selected cells were then transposed by a piggyback based plasmid pCM4007 allowing the expression of constitutively activated MEK5DD under control of TREG3 promoter, a doxycycline regulated promoter. Transposed cells were selected by puromycin treatment. Upon doxycycline treatment (1 μg/ml) MEK5DD was expressed. MEK5DD activates ERK5 that phosphorylates MEF2C protein. Activated MEF2C protein can bind to its transcriptional response elements. Then the luciferase is expressed. In a 96-well plate (96F nuncleon ref137101 thermofisher), 50,000 cells were inoculated in 142.5 μl of RPMI medium containing 10% fetal calf serum, 1% glutamine, and 1 μg/ml doxycycline. After 24 hours, compounds were added in 7.5 μl culture medium (with 2% DMSO to give a final concentration of 0.1%) in order to obtain the desired concentration (0.3-10000 nM). The luciferase activity was measured using the Kit Bright Glo Luminescent Cell Assay Cat E2610 (Promega) according to the manufacturer's protocol. Luminescence was determined using 0.2 second reading/well using a Tecan SPARK. IC50 values were calculated using XLFIT5 for Microsoft Excel using method 205. The IC50 values represent the concentration of compound which inhibits the measurable luminescence signal by 50% as compared to DMSO-treated control cells.
(In a reporter assay the amount or activity of a reporter protein is the signal.)

Assay [1] addresses T2, activated catalytic domain of protein ERK5 (Homo sapiens, UniProt Q13164).
T2 construct: purchased CarnaBiosciences #04-146
Kind of assay: Cell-Free Assay of ERK5 Inhibition (Time-Resolved Forster Resonance Energy Transfer). The conditions noted are these: ERK5 4 nM, 1 mM ATP, 1 μM biotinylated 4EBP1 peptide, 30 min at 37° C.; TR-FRET; mean where repeated. Type of assay: biochemical. The procedure:
as §1
Cell-Free Assay of ERK5 Inhibition
An assay was performed to measure the capacity of each compound to inhibit ERK5 enzymatic activity. Compound potency was evaluated by Time-Resolved Forster Resonance Energy Transfer (FRET system). The activated catalytic domain of protein ERK5 (CarnaBiosciences #04-146) was mixed at 4 nM with varying concentrations of compound and incubated for 30 minutes at room temperature. A mixture of 1 mM ATP and 1 μM biotinylated synthetic peptide was added (Biosyntan GmbH). This synthetic peptide represents amino acids 30-52 of Eukaryotic translation initiation factor 4E-binding protein 1 (see, e.g., the sequence under accession No. NP_004086.1) biotinylated at the N-terminus. After 30 minutes at 37° C., the peptide phosphorylation by ERK5 was measured by addition of FRET reagents consisting of 12.5 µg/ml Streptavidin-XL665, 1 nM Anti-P-4EBP1 antibody and 300 ng/ml Anti-rabbit-K antibody. Following 90 minutes at room temperature fluorescent signals were read on the Pherastar FSX multimod detector from BMG Labtech (Exc° 340 nm, Em1 620 nm, Em2 665 nm). The IC50 values represent the concentration of compound which inhibits the measurable fluorescence signal by […] as compared to the DMSO only control.

T1 sequence (Q13164 whole entry): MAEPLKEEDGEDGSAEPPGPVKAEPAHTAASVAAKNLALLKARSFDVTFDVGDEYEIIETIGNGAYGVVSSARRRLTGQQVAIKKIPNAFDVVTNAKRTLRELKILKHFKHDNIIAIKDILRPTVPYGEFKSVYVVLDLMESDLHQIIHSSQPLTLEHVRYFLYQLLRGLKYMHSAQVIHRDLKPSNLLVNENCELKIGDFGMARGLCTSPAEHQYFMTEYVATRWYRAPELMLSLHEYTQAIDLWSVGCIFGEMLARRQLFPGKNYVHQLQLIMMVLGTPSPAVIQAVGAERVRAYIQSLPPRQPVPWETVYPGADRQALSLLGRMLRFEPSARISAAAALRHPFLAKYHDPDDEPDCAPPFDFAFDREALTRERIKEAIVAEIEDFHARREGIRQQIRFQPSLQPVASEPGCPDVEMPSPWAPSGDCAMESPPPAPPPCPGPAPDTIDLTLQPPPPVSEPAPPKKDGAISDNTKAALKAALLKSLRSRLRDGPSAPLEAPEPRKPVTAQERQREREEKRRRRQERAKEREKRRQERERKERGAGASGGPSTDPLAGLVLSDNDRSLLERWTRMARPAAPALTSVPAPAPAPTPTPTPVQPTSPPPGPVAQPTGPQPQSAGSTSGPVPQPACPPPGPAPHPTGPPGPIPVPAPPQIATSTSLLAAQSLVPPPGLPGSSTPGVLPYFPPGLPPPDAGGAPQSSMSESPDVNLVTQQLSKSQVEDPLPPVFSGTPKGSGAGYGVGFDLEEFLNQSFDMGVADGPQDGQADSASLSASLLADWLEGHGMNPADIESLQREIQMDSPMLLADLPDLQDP
T2 sequence (Q13164 55-347 limits assumed): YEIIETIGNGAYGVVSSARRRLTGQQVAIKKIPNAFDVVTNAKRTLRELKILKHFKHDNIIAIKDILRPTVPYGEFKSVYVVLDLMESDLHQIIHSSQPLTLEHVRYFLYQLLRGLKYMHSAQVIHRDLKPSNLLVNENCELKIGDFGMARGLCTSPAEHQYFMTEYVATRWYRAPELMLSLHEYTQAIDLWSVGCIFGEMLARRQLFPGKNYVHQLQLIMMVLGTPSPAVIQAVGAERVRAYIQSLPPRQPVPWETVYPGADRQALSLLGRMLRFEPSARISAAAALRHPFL

As a reminder, the IC50 is the concentration needed to halve the response being measured. Read a high IC50 as a need for much substance. For the compound `O=C(c1ccc(S(F)(F)(F)(F)F)cc1F)N1CCC(c2c[nH]c3ncc(C4CCOCC4)nc23)CC1` [Example 26, [2-Fluoro-4-(pentafluoro-λ^6-sulfanyl)phenyl]-[4-(2-tetrahydropyran-4-yl-5H-pyrrolo[2,3-b]pyrazin-7-yl)-1-piperidyl]methanone], the IC50 against Cellular ERK5 Activity came to 149 nM; in assay [1], 624 nM.
In the case of `O=C(c1ccc(S(F)(F)(F)(F)F)cc1)N1CCC(c2c[nH]c3ncc(C4CCOCC4)nc23)CC1` [Example 17, [4-(pentafluoro-λ^6-sulfanyl)phenyl]-[4-(2-tetrahydropyran-4-yl-5H-pyrrolo[2,3-b]pyrazin-7-yl)-1-piperidyl]methanone], the results for the IC50 (against Cellular ERK5 Activity; in assay [1]) were 140 nM and 578 nM, respectively.
With `Nc1cc(OC(F)(F)F)ccc1C(=O)N1CCC(c2c[nH]c3ncc(C4CCOC4)nc23)CC1` (single isomer, unassigned) [Example 14, [2-Amino-4-(trifluoromethoxy)phenyl]-[4-(2-tetrahydrofuran-3-yl-5H-pyrrolo[2,3-b]pyrazin-7-yl)-1-piperidyl]methanone], the IC50 on Cellular ERK5 Activity stood at 46 nM; in assay [1], 99 nM.
